From patent US11771709B2, “ALK protein degradation agent and anti-tumor application thereof” (ShanghaiTech University, priority 2017, dated 2023)

Tests used:
[1] = system: NCI-H3122 (EML4-ALK, V1) cells; experiment: Growth inhibition IC50 in lung cancer H3122 cells (Cell Titer Blue / Cell Titer Glo); conditions: Homo sapiens, NCI-H3122, H3122 cells, CTB (Cell Titer Blue)
SR (NPM-ALK) cells = experiment: Growth inhibition IC50 in ALCL SR cells (CCK8/WST, 72 hours); type: cell-based; conditions: 72 h, SR cells, WST; Brigatinib-based PROTAD molecules (Table 3)
[2] = molecular target: T1, ALK protein in SR (NPM-ALK) cells (Homo sapiens, UniProt Q9UM73); experiment: Western blot of ALK protein level (degradation, DC50), ALK phosphorylation and downstream signaling in SR cells; type: cell-based; conditions: for DC50: ALK protein degradation in SR cells
T1 construct: NPM (nucleophosmin, NPM1, P06748) fusion partner; host or cells: SR (ALCL) cells; the other entry of the earlier key: NPM1 (P06748, Nucleophosmin)
T1 sequence (Q9UM73 with tags, fused parts or gaps): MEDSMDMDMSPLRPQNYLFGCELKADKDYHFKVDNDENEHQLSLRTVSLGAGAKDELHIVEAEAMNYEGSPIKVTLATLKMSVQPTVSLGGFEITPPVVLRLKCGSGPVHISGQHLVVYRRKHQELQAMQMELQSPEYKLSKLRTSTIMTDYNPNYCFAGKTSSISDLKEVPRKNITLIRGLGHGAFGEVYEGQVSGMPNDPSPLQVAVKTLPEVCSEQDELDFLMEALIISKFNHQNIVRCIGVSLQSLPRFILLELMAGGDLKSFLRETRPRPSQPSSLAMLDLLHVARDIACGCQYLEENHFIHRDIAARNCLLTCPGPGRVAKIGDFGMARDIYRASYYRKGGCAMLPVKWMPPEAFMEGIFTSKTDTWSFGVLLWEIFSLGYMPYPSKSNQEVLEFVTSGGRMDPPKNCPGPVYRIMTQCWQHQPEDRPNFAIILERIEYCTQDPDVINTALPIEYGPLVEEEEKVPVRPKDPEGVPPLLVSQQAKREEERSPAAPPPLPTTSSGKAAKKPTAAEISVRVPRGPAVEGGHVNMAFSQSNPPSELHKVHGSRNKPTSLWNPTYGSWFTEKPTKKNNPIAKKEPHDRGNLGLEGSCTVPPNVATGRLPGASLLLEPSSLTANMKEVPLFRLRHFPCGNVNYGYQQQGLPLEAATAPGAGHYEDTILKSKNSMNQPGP

[3] = molecular target: T2, ALK protein in H3122 (EML4-ALK) cells (Homo sapiens, UniProt Q9UM73); experiment: Western blot of ALK protein level (degradation, DC50), ALK phosphorylation and downstream signaling in H3122 cells; type: cell-based; conditions: ALK protein degradation in H3122 cells
T2 construct: EML4 (Echinoderm microtubule-associated protein-like 4, Q9HC35) fusion partner, variant 1; host or cells: NCI-H3122 lung adenocarcinoma cells; the other entry of the earlier key: EML4 (Q9HC35, Echinoderm microtubule-associated protein-like 4)
T2 sequence (Q9UM73 with tags, fused parts or gaps): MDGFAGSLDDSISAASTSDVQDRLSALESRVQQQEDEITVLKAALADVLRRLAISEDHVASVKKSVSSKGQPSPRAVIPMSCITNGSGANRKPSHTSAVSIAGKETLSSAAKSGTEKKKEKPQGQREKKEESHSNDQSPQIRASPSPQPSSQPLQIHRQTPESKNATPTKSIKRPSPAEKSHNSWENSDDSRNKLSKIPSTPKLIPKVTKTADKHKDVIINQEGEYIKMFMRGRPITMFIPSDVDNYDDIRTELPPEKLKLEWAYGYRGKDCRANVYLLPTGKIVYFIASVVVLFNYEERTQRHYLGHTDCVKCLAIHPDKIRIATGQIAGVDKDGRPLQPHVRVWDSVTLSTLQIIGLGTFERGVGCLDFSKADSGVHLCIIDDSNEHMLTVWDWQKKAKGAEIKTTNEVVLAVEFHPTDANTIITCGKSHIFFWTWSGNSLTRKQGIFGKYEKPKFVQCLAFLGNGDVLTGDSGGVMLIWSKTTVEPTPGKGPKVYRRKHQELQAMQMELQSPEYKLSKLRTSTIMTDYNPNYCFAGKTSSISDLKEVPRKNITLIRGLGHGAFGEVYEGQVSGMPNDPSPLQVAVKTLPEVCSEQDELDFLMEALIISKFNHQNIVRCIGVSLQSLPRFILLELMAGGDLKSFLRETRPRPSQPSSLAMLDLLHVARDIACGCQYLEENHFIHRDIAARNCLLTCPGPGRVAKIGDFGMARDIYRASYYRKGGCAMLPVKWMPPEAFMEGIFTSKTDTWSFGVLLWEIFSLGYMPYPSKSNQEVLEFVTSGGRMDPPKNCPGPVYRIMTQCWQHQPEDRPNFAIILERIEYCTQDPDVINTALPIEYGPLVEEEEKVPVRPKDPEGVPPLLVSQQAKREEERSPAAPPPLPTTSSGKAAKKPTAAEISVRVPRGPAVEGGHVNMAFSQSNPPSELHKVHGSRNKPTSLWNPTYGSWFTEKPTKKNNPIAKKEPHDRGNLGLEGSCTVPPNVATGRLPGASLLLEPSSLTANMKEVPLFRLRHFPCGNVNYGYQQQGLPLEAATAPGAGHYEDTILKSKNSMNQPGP

| IC50 [1] [nM] | DC50 [2] [nM] | DC50 [3] [nM] | concentration at which ALK proteins were degraded ([2]; SR cells, western blot) [nM] | Compound | IC50 (SR (NPM-ALK) cells) [nM] |
| --- | --- | --- | --- | --- | --- |
| 2560 |  |  |  | Cc1cc(Nc2ncc(Cl)c(Nc3ccccc3S(=O)(=O)C(C)C)n2)c(OC(C)C)cc1C1CCN(C(=O)CCCCCCCCCC(=O)N[C@H](C(=O)N2C[C@H](O)C[C@H]2C(=O)NCc2ccc(-c3scnc3C)cc2)C(C)(C)C)CC1 [SIAIS074026, (2S,4R)-1-((S)-2-(11-(4-(4-((5-chloro-4-((2-(isopropylsulfonyl)phenyl)amino)pyrimidin-2-yl)amino)-5-isopropoxy-2-methylphenyl)piperidin-1-yl)-11-oxoundecanamido)-3,3-dimethylbutanoyl)-4-hydroxy-N-(4-(4-methylthiazol-5-yl)benzyl)pyrrolidine-2-carboxamide] |  |
| 14 |  |  |  | Cc1cc(Nc2ncc(Cl)c(Nc3ccccc3S(=O)(=O)C(C)C)n2)c(OC(C)C)cc1C1CCN(C(=O)CCNc2cccc3c2C(=O)N(C2CCC(=O)NC2=O)C3=O)CC1 (stereo not shown) [SIAIS151034, 4-((3-(4-(4-((5-chloro-4-((2-(isopropylsulfonyl)phenyl)amino)pyrimidin-2-yl)amino)-5-isopropoxy-2-methylphenyl)piperidin-1-yl)-3-oxopropyl)amino)-2-(2,6-dioxopiperidin-3-yl)isoindoline-1,3-dione] |  |
| 31 |  |  |  | Cc1cc(Nc2ncc(Cl)c(Nc3ccccc3S(=O)(=O)C(C)C)n2)c(OC(C)C)cc1C1CCN(C(=O)CCCCNc2cccc3c2C(=O)N(C2CCC(=O)NC2=O)C3=O)CC1 (stereo not shown) [SIAIS151036, 4-((5-(4-(4-((5-chloro-4-((2-(isopropylsulfonyl)phenyl)amino)pyrimidin-2-yl)amino)-5-isopropoxy-2-methylphenyl)piperidin-1-yl)-5-oxopentyl)amino)-2-(2,6-dioxopiperidin-3-yl)isoindoline-1,3-dione] |  |
|  | 1 to 10 | 0.1 to 10 |  | COc1cc(N2CCC(NC(=O)CCCCCC(=O)N[C@H](C(=O)N3C[C@H](O)C[C@H]3C(=O)NCc3ccc(-c4scnc4C)cc3)C(C)(C)C)CC2)ccc1Nc1ncc(Cl)c(Nc2ccccc2P(C)(C)=O)n1 [SIAIS164146, N1-(1-(4-((5-chloro-4-((2-(dimethylphosphoryl)phenyl)amino)pyrimidin-2-yl)amino)-3-methoxyphenyl)piperidin-4-yl)-N7-((S)-1-((2S,4R)-4-hydroxy-2-((4-(4-methylthiazol-5-yl)benzyl)carbamoyl)pyrrolidin-1-yl)-3,3-dimethyl-1-oxobutan-2-yl)heptanediamide] | 3.6 ± 2.1 |
|  | 0.5 to 10 | 10 to 50 |  | COc1cc(N2CCC(N3CCN(C(=O)CCC(=O)NCCNc4cccc5c4C(=O)N(C4CCC(=O)NC4=O)C5=O)CC3)CC2)ccc1Nc1ncc(Cl)c(Nc2ccccc2P(C)(C)=O)n1 (stereo not shown) [SIAIS164152, 4-(4-(1-(4-((5-chloro-4-((2-(dimethylphosphoryl)phenyl)amino)pyrimidin-2-yl)amino)-3-methoxyphenyl)piperidin-4-yl)piperazin-1-yl)-N-(2-((2-(2,6-dioxopiperidin-3-yl)-1,3-dioxoisoindolin-4-yl)amino)ethyl)-4-oxobutanamide] | 7.9 ± 3.5 |
|  | 100 to 500 | 1 to 10 | 1 | COc1cc(N2CCC(N3CCN(C(=O)CCCc4cn(CCCC(=O)N[C@H](C(=O)N5C[C@H](O)C[C@H]5C(=O)NCc5ccc(-c6scnc6C)cc5)C(C)(C)C)nn4)CC3)CC2)ccc1Nc1ncc(Cl)c(Nc2ccccc2P(C)(C)=O)n1 [SIAIS164153, (2S,4R)-1-((S)-2-(4-(4-(4-(4-(1-(4-((5-chloro-4-((2-(dimethylphosphoryl)phenyl)amino)pyrimidin-2-yl)amino)-3-methoxyphenyl)piperidin-4-yl)piperazin-1-yl)-4-oxobutyl)-1H-1,2,3-triazol-1-yl)butanamido)-3,3-dimethylbutanoyl)-4-hydroxy-N-(4-(4-methylthiazol-5-yl)benzyl)pyrrolidine-2-carboxamide] | 55.9 ± 19.9 |
|  | 1 to 10 | 1 to 50 |  | COc1cc(N2CCN(C(=O)CNc3cccc4c3C(=O)N(C3CCC(=O)NC3=O)C4=O)CC2)ccc1Nc1ncc(Cl)c(Nc2ccccc2P(C)(C)=O)n1 (stereo not shown) [SIAIS1197055, 4-((2-(4-(4-((5-chloro-4-((2-(dimethylphosphoryl)phenyl)amino)pyrimidin-2-yl)amino)-3-methoxyphenyl)piperazin-1-yl)-2-oxoethyl)amino)-2-(2,6-dioxopiperidin-3-yl)isoindoline-1,3-dione] | ~1 |
|  | 0.1 to 0.5 | 50 to 500 |  | COc1cc(N2CCN(C(=O)CCCCCCNc3cccc4c3C(=O)N(C3CCC(=O)NC3=O)C4=O)CC2)ccc1Nc1ncc(Cl)c(Nc2ccccc2P(C)(C)=O)n1 (stereo not shown) [SIAIS1197077, 4-((7-(4-(4-((5-chloro-4-((2-(dimethylphosphoryl)phenyl)amino)pyrimidin-2-yl)amino)-3-methoxyphenyl)piperazin-1-yl)-7-oxoheptyl)amino)-2-(2,6-dioxopiperidin-3-yl)isoindoline-1,3-dione] | 7.9 ± 4.9 |
|  | 1 to 50 | 1 to 50 |  | COc1cc(N2CCN(C(=O)CCCCCCC(=O)N[C@H](C(=O)N3C[C@H](O)C[C@H]3C(=O)NCc3ccc(-c4scnc4C)cc3)C(C)(C)C)CC2)ccc1Nc1ncc(Cl)c(Nc2ccccc2P(C)(C)=O)n1 [SIAIS1197153, (2S,4R)-1-((S)-2-(8-(4-(4-((5-chloro-4-((2-(dimethylphosphoryl)phenyl)amino)pyrimidin-2-yl)amino)-3-methoxyphenyl)piperazin-1-yl)-8-oxooctanamido)-3,3-dimethylbutanoyl)-4-hydroxy-N-(4-(4-methylthiazol-5-yl)benzyl)pyrrolidine-2-carboxamide] | 4.6 ± 1.9 |
|  | 1 to 10 | 1 to 50 |  | COc1cc(N2CCN(C(=O)CCCCCCCC(=O)N[C@H](C(=O)N3C[C@H](O)C[C@H]3C(=O)NCc3ccc(-c4scnc4C)cc3)C(C)(C)C)CC2)ccc1Nc1ncc(Cl)c(Nc2ccccc2P(C)(C)=O)n1 [SIAIS1197155, (2S,4R)-1-((S)-2-(9-(4-(4-((5-chloro-4-((2-(dimethylphosphoryl)phenyl)amino)pyrimidin-2-yl)amino)-3-methoxyphenyl)piperazin-1-yl)-9-oxononanamido)-3,3-dimethylbutanoyl)-4-hydroxy-N-(4-(4-methylthiazol-5-yl)benzyl)pyrrolidine-2-carboxamide] | 3.4 ± 0.5 |
|  | 1 to 10 | 1 to 50 |  | COc1cc(N2CCN(C(=O)CCCCCCCCC(=O)N[C@H](C(=O)N3C[C@H](O)C[C@H]3C(=O)NCc3ccc(-c4scnc4C)cc3)C(C)(C)C)CC2)ccc1Nc1ncc(Cl)c(Nc2ccccc2P(C)(C)=O)n1 [SIAIS1197157, (2S,4R)-1-((S)-2-(10-(4-(4-((5-chloro-4-((2-(dimethylphosphoryl)phenyl)amino)pyrimidin-2-yl)amino)-3-methoxyphenyl)piperazin-1-yl)-10-oxodecanamido)-3,3-dimethylbutanoyl)-4-hydroxy-N-(4-(4-methylthiazol-5-yl)benzyl)pyrrolidine-2-carboxamide] | 3.1 ± 1.3 |
